Data: US10681909B2, “Herbicidal triazoles” (FMC Corporation, priority 2014, dated 2020)

Columns and labels:
ragweed = assay: Test A preemergence; format: in vivo, Ambrosia elatior; conditions: 0 to 100 scale (0 no effect, 100 complete control)
Method in brief: (§1)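 Weed and crop species in loam–sand blend sprayed preemergence on soil or postemergence at 2–10 cm, one- to two-leaf stage, with chemicals in surfactant-containing solvent. Injury rated visually after ~10 d in greenhouse versus untreated controls on a 0–100 scale (100 = complete control).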

ryegrass, Italian [1] = assay: Test A postemergence; format: in vivo, Lolium multiflorum; conditions: 0 to 100 scale (0 no effect, 100 complete control), approx. 10 d
Method in brief: as §1

ryegrass, Italian [2] = assay: Test A preemergence; format: in vivo, Lolium multiflorum; conditions: 0 to 100 scale (0 no effect, 100 complete control)
Method in brief: as §1

barley, winter = assay: Test D preemergence; format: in vivo, Hordeum vulgare; conditions: for Plant response rating: Barley, Winter: scale 0 to 100
Method in brief: (§2)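 In this greenhouse herbicide screen, the preemergence spray went onto freshly planted silt loam, and the postemergence spray went onto seedlings 2 to 18 cm high. The compounds were carried in a surfactant-containing solvent. Plants were visually evaluated against controls after 14–21 d; a dash denotes no test result.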

barley, spring = assay: Test D preemergence; format: in vivo, Hordeum vulgare; conditions: for Plant response rating: Barley, Spring: scale 0 to 100
Method in brief: as §2

wild mustard = assay: Test D preemergence; format: in vivo, Sinapis arvensis; conditions: for Plant response rating: Mustard, Wild: scale 0 to 100
Method in brief: as §2

field poppy = assay: Test D postemergence; format: in vivo, Papaver rhoeas; conditions: scale 0 to 100
Method in brief: as §2

wheat (winter wheat) = assay: Test C preemergence; format: in vivo, Triticum aestivum; conditions: for Wheat plant response rating (0 to 100): Preemergence, visual rating after 13 to 15 d
Method in brief: (§3)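 Pre: seeded into loam/sand, sprayed same time. Post: plants in peat moss–vermiculite mix with starter nutrients and dolomitic limestone, treated at 1- to 4-leaf stage (2 to 18 cm). Formulation: non-phytotoxic solvent blend plus surfactant.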

galium = assay: Test D postemergence; format: in vivo, Galium aparine; conditions: scale 0 to 100
Method in brief: as §2

foxtail, giant = assay: Test C preemergence; format: in vivo, Setaria faberii; conditions: for Plant response rating (scale of 0 to 100 where 0 is no effect and 100 is complete control): Foxtail, Giant, preemergence; for Foxtail, Giant plant response rating (0 to 100): Preemergence, visual rating after 13 to 15 d
Method in brief: as §3

pigweed [3] = assay: Test D preemergence; format: in vivo, Amaranthus retroflexus; conditions: for Plant response rating: Pigweed: scale 0 to 100
Method in brief: as §2

oilseed rape = assay: Test D preemergence; format: in vivo, Brassica napus; conditions: for Plant response rating: Oilseed Rape: scale 0 to 100
Method in brief: as §2

windgrass = assay: Test D preemergence; format: in vivo, Apera spica-venti; conditions: for Plant response rating: Windgrass: scale 0 to 100
Method in brief: as §2

pigweed [4] = assay: Test D postemergence; format: in vivo, Amaranthus retroflexus; conditions: scale 0 to 100
Method in brief: as §2

[5] = 16 g ai/ha, 0 is no effect, 100 is complete control

Fc1ccc(-c2nc(OCC(F)(F)F)n(Cc3ccnc(C(F)(F)F)c3)n2)cc1 [Compound 30]
Plant response rating, Ragweed (ragweed; 125 g ai/ha): 80
Plant response rating, Ragweed (ragweed; 500 g ai/ha, approx. 10 d): 80
Plant response rating, Ryegrass, Italian (ryegrass, Italian [1]; 125 g ai/ha): 50
Plant response rating, Ryegrass, Italian (ryegrass, Italian [1]; 500 g ai/ha): 80
Plant response rating, Ryegrass, Italian (ryegrass, Italian [2]; 125 g ai/ha): 90
Plant response rating, Ryegrass, Italian (ryegrass, Italian [2]; 500 g ai/ha, approx. 10 d): 100
Plant response rating (0 to 100), Barley, Winter (barley, winter; [5]): 20
Plant response rating: Barley, Winter (barley, winter; 31 g ai/ha): 25
Plant response rating: Barley, Winter (barley, winter; 62 g ai/ha): 30
Plant response rating: Barley, Winter (barley, winter; 125 g ai/ha): 40
Plant response rating (0 to 100), Barley, Spring (barley, spring; [5]): 30
Plant response rating: Barley, Spring (barley, spring; 31 g ai/ha): 40
Plant response rating: Barley, Spring (barley, spring; 62 g ai/ha): 35
Plant response rating: Barley, Spring (barley, spring; 125 g ai/ha): 45
Plant response rating (0 to 100), Mustard, Wild (wild mustard; [5]): 90
Plant response rating: Mustard, Wild (wild mustard; 62 g ai/ha): 100
Plant response rating: Mustard, Wild (wild mustard; 125 g ai/ha): 100
Plant response rating: Field Poppy (field poppy; 16 g ai/ha): 70
Plant response rating: Field Poppy (field poppy; 31 g ai/ha): 90
Plant response rating: Field Poppy (field poppy; 62 g ai/ha): 98
Plant response rating: Field Poppy (field poppy; 125 g ai/ha): 100
Wheat plant response rating (0 to 100) (wheat (winter wheat); 31 g ai/ha): 0
Wheat plant response rating (0 to 100) (wheat (winter wheat); 62 g ai/ha): 0
Plant response rating (scale of 0 to 100 where 0 is no effect and 100 is complete control) (wheat (winter wheat); Wheat, preemergence, 250 g ai/ha): 35
Plant response rating: Galium (galium; 16 g ai/ha): 70
Plant response rating: Galium (galium; 31 g ai/ha): 75
Plant response rating: Galium (galium; 62 g ai/ha): 80
Plant response rating: Galium (galium; 125 g ai/ha): 85
Plant response rating (scale of 0 to 100 where 0 is no effect and 100 is complete control) (foxtail, giant; 125 g ai/ha): 100
Plant response rating (scale of 0 to 100 where 0 is no effect and 100 is complete control) (foxtail, giant; 250 g ai/ha): 100
Foxtail, Giant plant response rating (0 to 100) (foxtail, giant; 31 g ai/ha): 98
Foxtail, Giant plant response rating (0 to 100) (foxtail, giant; 62 g ai/ha): 100
Plant response rating (0 to 100), Pigweed (pigweed [3]; [5]): 100
Plant response rating: Pigweed (pigweed [3]; 62 g ai/ha): 100
Plant response rating: Pigweed (pigweed [3]; 125 g ai/ha): 100
Plant response rating (0 to 100), Oilseed Rape (oilseed rape; [5]): 10
Plant response rating: Oilseed Rape (oilseed rape; 62 g ai/ha): 35
Plant response rating: Oilseed Rape (oilseed rape; 125 g ai/ha): 55
Plant response rating (0 to 100), Windgrass (windgrass; [5]): 25
Plant response rating: Windgrass (windgrass; 62 g ai/ha): 100
Plant response rating: Windgrass (windgrass; 125 g ai/ha): 100
Plant response rating: Pigweed (pigweed [4]; 16 g ai/ha): 100
Plant response rating: Pigweed (pigweed [4]; 31 g ai/ha): 100
Plant response rating: Pigweed (pigweed [4]; 62 g ai/ha): 100
Plant response rating: Pigweed (pigweed [4]; 125 g ai/ha): 100
